According to patent US12459974B2, “Bicyclic peptide ligands specific for Nectin-4” (priority 2018, dated 2025):
*1 amine or outer side, *2 acyl side, *3 side chain or, on linkers, in order; H or OH if unused. Where a SMILES comes first, the peptide text is derived from it. Bridges are numbered along the chain shown (N, C = ends). TATA = O=C(CC[*:1])N1CN(C(=O)CC[*:2])CN(C(=O)CC[*:3])C1

These compounds were tested against T1, human Nectin-4 (Homo sapiens, UniProt Q96NY8) (assay: Nectin-4 competition binding assay (fluorescence polarisation)). Details: not given.
T1 sequence (Q96NY8 32-510): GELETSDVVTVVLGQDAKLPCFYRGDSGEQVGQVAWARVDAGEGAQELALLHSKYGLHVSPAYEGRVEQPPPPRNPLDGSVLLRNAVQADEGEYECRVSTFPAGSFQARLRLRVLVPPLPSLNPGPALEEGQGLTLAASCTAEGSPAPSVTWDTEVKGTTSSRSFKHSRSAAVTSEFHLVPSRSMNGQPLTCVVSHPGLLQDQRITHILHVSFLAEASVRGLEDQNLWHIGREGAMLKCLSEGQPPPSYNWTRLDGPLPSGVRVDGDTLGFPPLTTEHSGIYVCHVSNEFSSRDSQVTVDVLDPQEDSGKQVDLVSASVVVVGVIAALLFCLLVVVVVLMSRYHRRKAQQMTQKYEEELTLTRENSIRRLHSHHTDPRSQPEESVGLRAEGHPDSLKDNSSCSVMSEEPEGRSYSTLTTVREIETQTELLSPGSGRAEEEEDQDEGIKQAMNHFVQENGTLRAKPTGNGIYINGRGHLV
Method: Peptides were diluted to an appropriate concentration in assay buffer as described in the direct binding assay with a maximum of 5% DMSO, then serially diluted 1 in 2. Five μL of diluted peptide was added to the plate followed by 10 μL of human Nectin-4, then 10 μL fluorescent peptide added. Measurements were conducted as for the direct binding assay, however the gain was determined prior to the first measurement. Data analysis was in Systat Sigmaplot version 12.0 where the mP values were fit to a user defined cubic equation to generate a Ki value: • f=ymin+(ymax−ymin)/Lig*((Lig*((2*((Klig+Kcomp+Lig+Comp-Prot*c)^2-3*(Kcomp*(Lig-Prot*c)+Klig*(Comp-Prot*c)+Klig*Kcomp))^0.5*COS(ARCCOS((−2*(Klig+Kcomp+Lig+Comp-Prot*c)^3+9*(Klig+Kcomp+Lig+Comp-Prot*c)*(Kcomp*(Lig-Prot*c)+Klig*(Comp-Prot*c)+Klig*Kcomp)−27*(−1*Klig*Kcomp*Prot*c)/(2*((((Klig+Kcomp+Lig+Comp-Prot*c)^2−3*(Kcomp*(Lig-Prot*c)+Klig*(Comp-Prot*c)+Klig*Kcomp))^3)^0.5)))/3))−(Klig+Kcomp+Lig+Comp-Prot*c)))/((3*Klig)+((2*((Klig+Kcomp+Lig+Comp-Prot*c)^2−3*(Kcomp*(Lig-Prot*c)+Klig*(Comp-Prot*c)+Klig*Kcomp))^0.5*COS (ARCCOS ((−2*(Klig+Kcomp+Lig+Comp-Prot*c)^3+9*(Klig+Kcomp+Lig+Comp-Prot*c)*(Kcomp*(Lig-Prot*c)+Klig*(Comp-Prot*c)+Klig*Kcomp)-27*(−1*Klig*Kcomp*Prot*c))/(2*((((Klig+Kcomp+Lig+Comp-Prot*c)^2-3*(Kcomp*(Lig-Prot*c)+Klig*(Comp-Prot+c)+Klig*Kcomp))^3)^0.5))/3)−(Klig+Kcomp+Lig+Comp-Prot*c)))).
“Lig”, “KLig” and “Prot” were all defined values relating to: fluorescent peptide concentration, the Kd of the fluorescent peptide and Nectin concentration respectively.

Row | Structure (SMILES) | Ki [nM]
1 | CC[C@H](C)[C@@H]1NC(=O)[C@@H]2CCCN2C(=O)[C@H](Cc2c[nH]c3ccccc23)NC(=O)[C@H](CO)NC(=O)[C@H](Cc2c[nH]c3ccccc23)NC(=O)CNC(=O)[C@H](CCCNC(=N)N)NC(=O)[C@H](CCSC)NC(=O)[C@@H]2CSCCC(=O)N3CN(CN(C3)C(=O)CCSC[C@H](NC(=O)[C@H](C)NC(=O)[C@@H](NC(=O)[C@@H](N)CC(=O)O)[C@@H](C)O)C(=O)N3CCC[C@H]3C(=O)N[C@@H](Cc3ccccc3)C(=O)NCC(=O)N2)C(=O)CCSC[C@@H](C(=O)N[C@@H](C)C(N)=O)NC(=O)[C@H](Cc2c[nH]c3ccccc23)NC1=O [BCY3388, DTA-(SEQ ID NO: 46)-A] (H-DTACPFGCMRGWSWPIWCA-NH2; linker 4-8-18 via TATA) | 129

Same assay, conditions: competition with fluorescent peptide SEQ ID NO: 217; read-out: Ki

Row | Structure (SMILES) | Ki [nM]
2 | CC[C@H](C)[C@@H]1NC(=O)[C@@H]2CCCN2C(=O)[C@H](Cc2c[nH]c3ccccc23)NC(=O)[C@H](CO)NC(=O)[C@H](Cc2c[nH]c3ccccc23)NC(=O)[C@H](CC(N)=O)NC(=O)[C@H](CCCNC(=N)N)NC(=O)[C@H](CCSC)NC(=O)[C@@H]2CSCCC(=O)N3CN(CN(C3)C(=O)CCSC[C@H](NC(=O)[C@H](C)N)C(=O)N3CCC[C@H]3C(=O)N[C@@H](Cc3ccccc3)C(=O)NCC(=O)N2)C(=O)CCSC[C@@H](C(=O)N[C@@H](C)C(N)=O)NC(=O)[C@H](Cc2c[nH]c3ccccc23)NC1=O [BCY429, A-(SEQ ID NO: 2)-A] (H-ACPFGCMRNWSWPIWCA-NH2; linker 2-6-16 via TATA; N-terminus and C-terminus assumed) | 42.6
3 | CC[C@H](C)[C@@H]1NC(=O)[C@H](CCCNC(=N)N)NC(=O)CNC(=O)[C@@H]2CSCCC(=O)N3CN(CN(C3)C(=O)CCSC[C@@H](C(=O)N[C@@H](C)C(N)=O)NC1=O)C(=O)CCSC[C@H](NC(=O)[C@H](C)N)C(=O)N[C@@H](Cc1c[nH]c3ccccc13)C(=O)N1CCC[C@H]1C(=O)N[C@@H](CC(C)C)C(=O)N[C@@H](CC(=O)O)C(=O)N1CCC[C@H]1C(=O)N[C@@H](Cc1ccc(O)cc1)C(=O)N[C@@H](Cc1c[nH]c3ccccc13)C(=O)N2 [BCY430, A-(SEQ ID NO: 43)-A] (H-ACWPLDPYWCGRICA-NH2; linker 2-10-14 via TATA; N-terminus and C-terminus assumed) | 310
4 | CC[C@H](C)[C@@H]1NC(=O)[C@H](CCCNC(=N)N)NC(=O)CNC(=O)[C@@H]2CSCCC(=O)N3CN(CN(C3)C(=O)CCSC[C@@H](C(=O)N[C@@H](C)C(N)=O)NC1=O)C(=O)CCSC[C@H](NC(=O)[C@H](Cc1c[nH]c3ccccc13)NC(=O)[C@H](CC(=O)O)NC(=O)[C@@H](N)CC(=O)O)C(=O)N[C@@H](C)C(=O)N1CCC[C@H]1C(=O)N[C@@H](CC(C)C)C(=O)N[C@@H](CC(=O)O)C(=O)N[C@@H](CC(=O)O)C(=O)N[C@@H](Cc1ccc(O)cc1)C(=O)N[C@@H](Cc1c[nH]c3ccccc13)C(=O)N2 [BCY433, DDW-(SEQ ID NO: 32)-A] (H-DDWCAPLDDYWCGRICA-NH2; linker 4-12-16 via TATA; N-terminus and C-terminus assumed) | 69.4
5 | CC[C@H](C)[C@@H]1NC(=O)[C@@H]2CCCN2C(=O)[C@H](Cc2c[nH]c3ccccc23)NC(=O)[C@H](CO)NC(=O)[C@H](Cc2c[nH]c3ccccc23)NC(=O)[C@H]([C@@H](C)O)NC(=O)[C@H](CCC(=O)O)NC(=O)[C@H](CCSC)NC(=O)[C@@H]2CSCCC(=O)N3CN(CN(C3)C(=O)CCSC[C@H](NC(=O)[C@H](C)NC(=O)[C@H](CC(=O)O)NC(=O)[C@@H](N)CC(=O)O)C(=O)N3CCC[C@H]3C(=O)N[C@@H](Cc3ccccc3)C(=O)NCC(=O)N2)C(=O)CCSC[C@@H](C(=O)N[C@@H](C)C(N)=O)NC(=O)[C@H](Cc2c[nH]c3ccccc23)NC1=O [BCY3386, DDA-(SEQ ID NO: 45)-A] (H-DDACPFGCMETWSWPIWCA-NH2; linker 4-8-18 via TATA; N-terminus and C-terminus assumed) | 80.2
6 | CC[C@H](C)[C@@H]1NC(=O)[C@@H]2CCCN2C(=O)[C@H](Cc2c[nH]c3ccccc23)NC(=O)[C@H](CO)NC(=O)[C@H](Cc2c[nH]c3ccccc23)NC(=O)[C@H](CC(=O)O)NC(=O)[C@H](CCCCN)NC(=O)[C@H](CCSC)NC(=O)[C@@H]2CSCCC(=O)N3CN(CN(C3)C(=O)CCSC[C@H](NC(=O)[C@H](CC(N)=O)NC(=O)[C@H](CC(=O)O)NC(=O)[C@@H](N)CO)C(=O)N3CCC[C@H]3C(=O)N[C@@H](Cc3ccccc3)C(=O)NCC(=O)N2)C(=O)CCSC[C@@H](C(=O)N[C@@H](C)C(N)=O)NC(=O)[C@H](Cc2c[nH]c3ccccc23)NC1=O [BCY3387, SDN-(SEQ ID NO: 15)-A] (H-SDNCPFGCMKDWSWPIWCA-NH2; linker 4-8-18 via TATA; N-terminus and C-terminus assumed) | 234
7 | CC[C@H](C)[C@@H]1NC(=O)[C@@H]2CCCN2C(=O)[C@H](Cc2c[nH]c3ccccc23)NC(=O)[C@H](CO)NC(=O)[C@H](Cc2c[nH]c3ccccc23)NC(=O)CNC(=O)[C@H](CO)NC(=O)[C@H](CCSC)NC(=O)[C@@H]2CSCCC(=O)N3CN(CN(C3)C(=O)CCSC[C@H](NC(=O)[C@H](CCC(=O)O)NC(=O)[C@H](CO)NC(=O)[C@@H](N)CC(=O)O)C(=O)N3CCC[C@H]3C(=O)N[C@@H](Cc3ccccc3)C(=O)NCC(=O)N2)C(=O)CCSC[C@@H](C(=O)N[C@@H](C)C(N)=O)NC(=O)[C@H](Cc2c[nH]c3ccccc23)NC1=O [BCY3389, DSE-(SEQ ID NO: 47)-A] (H-DSECPFGCMSGWSWPIWCA-NH2; linker 4-8-18 via TATA; N-terminus and C-terminus assumed) | 99.8
8 | CC[C@H](C)[C@@H]1NC(=O)[C@@H]2CCCN2C(=O)[C@H](Cc2c[nH]c3ccccc23)NC(=O)[C@H](CO)NC(=O)[C@H](Cc2c[nH]c3ccccc23)NC(=O)CNC(=O)[C@H](CCC(=O)O)NC(=O)[C@H](CCSC)NC(=O)[C@@H]2CSCCC(=O)N3CN(CN(C3)C(=O)CCSC[C@H](NC(=O)[C@H](C)NC(=O)[C@H](CC(=O)O)NC(=O)[C@@H](N)Cc3c[nH]cn3)C(=O)N3CCC[C@H]3C(=O)N[C@@H](Cc3ccccc3)C(=O)NCC(=O)N2)C(=O)CCSC[C@@H](C(=O)N[C@@H](C)C(N)=O)NC(=O)[C@H](Cc2c[nH]c3ccccc23)NC1=O [BCY3390, HDA-(SEQ ID NO: 48)-A] (H-HDACPFGCMEGWSWPIWCA-NH2; linker 4-8-18 via TATA; N-terminus and C-terminus assumed) | 302
9 | CC[C@H](C)[C@@H]1NC(=O)[C@@H]2CCCN2C(=O)[C@H](Cc2c[nH]c3ccccc23)NC(=O)[C@H](CO)NC(=O)[C@H](Cc2c[nH]c3ccccc23)NC(=O)[C@H](CC(=O)O)NC(=O)[C@H](CCC(=O)O)NC(=O)[C@H](CCSC)NC(=O)[C@@H]2CSCCC(=O)N3CN(CN(C3)C(=O)CCSC[C@H](NC(=O)[C@@H](NC(=O)[C@H](CC(=O)O)NC(=O)[C@@H](N)CCSC)[C@@H](C)O)C(=O)N3CCC[C@H]3C(=O)N[C@@H](Cc3ccccc3)C(=O)NCC(=O)N2)C(=O)CCSC[C@@H](C(=O)N[C@@H](C)C(N)=O)NC(=O)[C@H](Cc2c[nH]c3ccccc23)NC1=O [BCY3391, MDT-(SEQ ID NO: 49)-A] (H-MDTCPFGCMEDWSWPIWCA-NH2; linker 4-8-18 via TATA; N-terminus and C-terminus assumed) | 198
10 | CC[C@H](C)[C@@H]1NC(=O)[C@@H]2CCCN2C(=O)[C@H](Cc2c[nH]c3ccccc23)NC(=O)[C@H](CO)NC(=O)[C@H](Cc2c[nH]c3ccccc23)NC(=O)CNC(=O)[C@@H]2CCCN2C(=O)[C@H](CCSC)NC(=O)[C@@H]2CSCCC(=O)N3CN(CN(C3)C(=O)CCSC[C@H](NC(=O)CNC(=O)[C@@H]3CCCN3C(=O)[C@@H](N)CC(=O)O)C(=O)N3CCC[C@H]3C(=O)N[C@@H](Cc3ccccc3)C(=O)NCC(=O)N2)C(=O)CCSC[C@@H](C(=O)N[C@@H](C)C(N)=O)NC(=O)[C@H](Cc2c[nH]c3ccccc23)NC1=O [BCY3392, DPG-(SEQ ID NO: 50)-A] (H-DPGCPFGCMPGWSWPIWCA-NH2; linker 4-8-18 via TATA; N-terminus and C-terminus assumed) | 36.3
